The values below come from article PMC7237647, “Synthesis, in vitro and in vivo evaluation of ^11C-O-methylated arylpiperazines as potential serotonin 1A (5-HT1A) receptor antagonist radiotracers” (EJNMMI Radiopharmacy and Chemistry, 2020).

SMILES strings stand for the structures.

For one assay, the target named is AMPA. The experiment in a line: NIMH-PDSP radioligand binding assay, AMPA.
A further assay concerns the target T1, 5-HT3 (Homo sapiens, UniProt P46098).
T1 construct: NIMH-PDSP
T1 sequence (P46098 24-478): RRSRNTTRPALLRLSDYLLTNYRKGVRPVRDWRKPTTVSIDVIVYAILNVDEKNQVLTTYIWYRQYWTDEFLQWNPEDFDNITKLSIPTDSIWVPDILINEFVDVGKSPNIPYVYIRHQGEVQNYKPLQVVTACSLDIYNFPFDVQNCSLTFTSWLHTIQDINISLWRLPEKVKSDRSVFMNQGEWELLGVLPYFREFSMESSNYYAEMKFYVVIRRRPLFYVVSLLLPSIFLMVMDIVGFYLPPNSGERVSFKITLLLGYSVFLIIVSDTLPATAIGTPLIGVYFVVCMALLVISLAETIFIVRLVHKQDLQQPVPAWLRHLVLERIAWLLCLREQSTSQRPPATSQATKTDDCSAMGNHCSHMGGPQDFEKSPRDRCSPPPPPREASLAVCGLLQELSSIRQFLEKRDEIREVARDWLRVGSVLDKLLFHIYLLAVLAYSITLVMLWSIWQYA
The experiment in a line: NIMH-PDSP radioligand binding assay, 5-HT3. The protocol:
(§1) . Cross selectivity for biogenic amines, neurotransmitter receptors, and transporters were determined by radioligand binding assays through NIMH- PDSP using validated and established protocols ([NIMH-PDSP Assay Protocol Book Version III, March 2018]).

In the next assay the target is T2, 5-HT2C (Homo sapiens, UniProt P28335).
T2 construct: NIMH-PDSP
T2 sequence (P28335 33-458): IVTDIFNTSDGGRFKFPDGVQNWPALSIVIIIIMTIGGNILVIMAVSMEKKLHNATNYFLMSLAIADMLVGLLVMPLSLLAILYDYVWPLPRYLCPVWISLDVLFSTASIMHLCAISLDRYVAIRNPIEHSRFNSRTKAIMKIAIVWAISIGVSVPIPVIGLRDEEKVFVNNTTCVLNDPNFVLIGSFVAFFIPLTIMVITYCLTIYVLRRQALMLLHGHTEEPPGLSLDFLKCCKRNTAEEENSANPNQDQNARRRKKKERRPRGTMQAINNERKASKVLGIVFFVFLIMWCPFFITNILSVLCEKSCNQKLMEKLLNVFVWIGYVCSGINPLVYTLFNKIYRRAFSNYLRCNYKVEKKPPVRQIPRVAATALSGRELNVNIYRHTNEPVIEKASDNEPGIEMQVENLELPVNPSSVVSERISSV
Also noted: method as in ref Fiorino et al. [2012]; Fiorino et al. [2016]; Fiorino et al. [2017]. To be noted: previous preliminary pharmacological screening; ref Fiorino et al. [2012]; Fiorino et al. [2016]; Fiorino et al. [2017]; cited from earlier work.

For another assay, the target named is 5-HT1A receptors. More on the design: method as in ref Fiorino et al. [2012], Fiorino et al. [2016], Fiorino et al. [2017]. To be noted: previous reports, different binding assay methodology; ref Fiorino et al. [2012], Fiorino et al. [2016], Fiorino et al. [2017]; cited from earlier work.
A further assay concerns the target NET (Homo sapiens, UniProt P23975). The experiment in a line: NIMH-PDSP radioligand binding assay, NET. The protocol:
as §1

The target in the next assay is T3, 5-HT7R (Homo sapiens, UniProt P34969).
T3 construct: NIMH-PDSP
T3 sequence (P34969 whole entry): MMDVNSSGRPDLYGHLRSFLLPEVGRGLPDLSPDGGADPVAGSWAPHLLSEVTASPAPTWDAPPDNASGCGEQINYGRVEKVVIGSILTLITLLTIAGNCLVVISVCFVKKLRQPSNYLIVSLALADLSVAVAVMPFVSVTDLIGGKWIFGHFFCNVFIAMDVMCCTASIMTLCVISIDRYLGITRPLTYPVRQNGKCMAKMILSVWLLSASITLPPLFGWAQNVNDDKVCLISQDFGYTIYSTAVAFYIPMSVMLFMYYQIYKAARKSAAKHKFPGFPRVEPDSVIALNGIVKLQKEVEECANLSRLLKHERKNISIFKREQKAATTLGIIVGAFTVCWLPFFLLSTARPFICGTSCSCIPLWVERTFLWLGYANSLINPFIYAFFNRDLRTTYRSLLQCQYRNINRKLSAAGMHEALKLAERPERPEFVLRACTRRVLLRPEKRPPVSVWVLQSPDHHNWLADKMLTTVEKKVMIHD
The experiment in a line: NIMH-PDSP radioligand binding assay, 5-HT7R.

In another assay the target is T4, 5-HT2B (Homo sapiens, UniProt P41595).
T4 construct: NIMH-PDSP
T4 sequence (P41595 whole entry, species assumed): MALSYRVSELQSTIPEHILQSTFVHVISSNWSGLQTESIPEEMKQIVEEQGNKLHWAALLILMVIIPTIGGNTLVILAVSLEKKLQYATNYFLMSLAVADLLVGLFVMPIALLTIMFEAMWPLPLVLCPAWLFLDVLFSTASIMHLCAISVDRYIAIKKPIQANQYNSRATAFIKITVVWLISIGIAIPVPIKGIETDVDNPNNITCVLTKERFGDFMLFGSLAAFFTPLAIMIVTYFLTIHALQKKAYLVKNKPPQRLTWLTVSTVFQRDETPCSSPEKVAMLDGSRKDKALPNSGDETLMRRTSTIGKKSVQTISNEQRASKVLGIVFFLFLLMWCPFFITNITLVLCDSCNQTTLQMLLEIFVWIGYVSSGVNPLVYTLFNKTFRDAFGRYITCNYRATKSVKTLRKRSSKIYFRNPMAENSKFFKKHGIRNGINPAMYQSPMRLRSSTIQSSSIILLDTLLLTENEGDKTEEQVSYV
The experiment in a line: NIMH-PDSP radioligand binding assay, 5-HT2B. The protocol:
as §1

Another assay addresses T5, PBR (Rattus norvegicus, UniProt P16257).
T5 construct: NIMH-PDSP
The experiment in a line: NIMH-PDSP radioligand binding assay, PBR. The protocol: as §1

Another assay deals with T6, 5-HT5a (Homo sapiens, UniProt P47898).
T6 construct: NIMH-PDSP
T6 sequence (P47898 whole entry, species assumed): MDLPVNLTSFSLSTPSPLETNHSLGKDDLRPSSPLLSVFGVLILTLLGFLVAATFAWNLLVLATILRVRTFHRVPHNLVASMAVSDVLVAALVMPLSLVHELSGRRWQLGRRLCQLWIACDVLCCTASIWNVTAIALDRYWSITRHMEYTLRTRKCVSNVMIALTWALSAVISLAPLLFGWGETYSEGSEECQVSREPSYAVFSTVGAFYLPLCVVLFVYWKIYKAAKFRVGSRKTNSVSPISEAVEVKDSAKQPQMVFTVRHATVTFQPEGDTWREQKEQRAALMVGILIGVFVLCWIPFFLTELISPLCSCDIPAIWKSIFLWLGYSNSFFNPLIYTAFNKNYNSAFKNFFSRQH
The experiment in a line: NIMH-PDSP radioligand binding assay, 5-HT5a. The protocol:
as §1

The next assay deals with H1-H4. The experiment in a line: NIMH-PDSP radioligand binding assay, H1-H4.
For a further assay, the target named is Adenosine receptors. The experiment in a line: NIMH-PDSP radioligand binding assay, Adenosine receptors.
A further assay has as its target T7, Sigma1R (Homo sapiens, UniProt Q99720).
T7 construct: NIMH-PDSP
The experiment in a line: NIMH-PDSP radioligand binding assay, Sigma1R. The protocol: as §1

The next assay addresses T8, 5-HT2A (Homo sapiens, UniProt P28223).
T8 construct: NIMH-PDSP
The experiment in a line: NIMH-PDSP radioligand binding assay, 5-HT2A.

NET, sequence (P23975 whole entry): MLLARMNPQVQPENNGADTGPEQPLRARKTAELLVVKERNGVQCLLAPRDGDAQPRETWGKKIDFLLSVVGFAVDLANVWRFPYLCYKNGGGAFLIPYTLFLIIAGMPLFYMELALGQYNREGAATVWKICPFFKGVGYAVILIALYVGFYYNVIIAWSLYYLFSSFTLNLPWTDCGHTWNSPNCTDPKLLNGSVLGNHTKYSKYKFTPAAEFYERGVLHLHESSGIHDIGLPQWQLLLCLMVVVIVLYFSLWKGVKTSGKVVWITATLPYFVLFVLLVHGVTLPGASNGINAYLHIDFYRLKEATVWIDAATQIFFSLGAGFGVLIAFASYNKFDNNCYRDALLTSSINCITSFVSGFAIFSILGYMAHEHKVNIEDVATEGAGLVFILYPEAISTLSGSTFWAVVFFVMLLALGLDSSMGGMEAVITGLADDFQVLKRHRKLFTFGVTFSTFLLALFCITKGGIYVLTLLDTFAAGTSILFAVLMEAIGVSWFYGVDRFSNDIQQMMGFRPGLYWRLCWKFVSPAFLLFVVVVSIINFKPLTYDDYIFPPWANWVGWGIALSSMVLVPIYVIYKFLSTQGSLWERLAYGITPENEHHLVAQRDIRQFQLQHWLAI
T7 sequence (Q99720 whole entry, species assumed): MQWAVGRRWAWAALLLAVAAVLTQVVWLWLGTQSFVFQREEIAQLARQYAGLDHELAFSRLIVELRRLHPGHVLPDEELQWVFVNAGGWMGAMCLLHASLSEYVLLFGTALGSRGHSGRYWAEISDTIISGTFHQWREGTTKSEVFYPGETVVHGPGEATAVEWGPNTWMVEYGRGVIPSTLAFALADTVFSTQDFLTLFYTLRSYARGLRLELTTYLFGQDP
T8 sequence (P28223 whole entry, species assumed): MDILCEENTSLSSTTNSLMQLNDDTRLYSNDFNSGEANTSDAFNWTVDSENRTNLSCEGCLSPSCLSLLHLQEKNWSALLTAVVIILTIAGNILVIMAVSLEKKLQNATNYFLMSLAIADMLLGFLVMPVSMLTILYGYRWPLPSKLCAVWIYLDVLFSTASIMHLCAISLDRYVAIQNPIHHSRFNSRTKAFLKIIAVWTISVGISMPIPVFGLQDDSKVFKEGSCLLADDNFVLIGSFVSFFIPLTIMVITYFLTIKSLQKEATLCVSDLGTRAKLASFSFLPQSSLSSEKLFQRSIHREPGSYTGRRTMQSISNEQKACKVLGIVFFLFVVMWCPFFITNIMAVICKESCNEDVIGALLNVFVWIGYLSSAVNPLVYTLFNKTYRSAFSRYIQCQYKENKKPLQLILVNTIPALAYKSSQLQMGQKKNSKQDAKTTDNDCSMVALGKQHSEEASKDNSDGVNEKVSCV

As usually defined, the Ki is the dissociation constant of the complex between target and ligand, obtained from inhibition or displacement. With `COc1ccccc1N1CCN(CCCN/C(=N\C#N)c2ccccn2)CC1` [Compound 1], the Ki on AMPA is > 10 µM; at 5-HT3 it was > 10 µM; at 5-HT1A receptors it was 0.00468 µM; at NET it was > 10 µM; on 5-HT7R it was 0.076 µM; at 5-HT2B, 0.403 µM. Moreover, the Ki at PBR is > 10 µM; on 5-HT5a it was > 10 µM; at H1-H4, > 10 µM; at Adenosine receptors it was > 10 µM; at Sigma1R it was 0.52 µM; on 5-HT2A, > 10 µM. For the same molecule, the “affinity to 5-HT2C” value on 5-HT2C is “high affinities”.

For the molecule `COc1ccccc1N1CCN(CCNC(=O)c2ccccn2)CC1` [Compound 2], the Ki was > 10 µM on AMPA; > 10 µM on 5-HT3; > 10 µM at NET; 0.83 µM at 5-HT7R; 0.516 µM on 5-HT2B; > 10 µM at PBR. For the same molecule, the Ki at 5-HT5a, at H1-H4, on Adenosine receptors, on Sigma1R and at 5-HT2A was > 10 µM throughout.
